Laboratory results published in patent US10253002B2, “Compounds and methods of treating infections” (Neoculi Pty Ltd., priority 2013, dated 2019).
Converted amounts (≈) assume the structure as drawn. “And” between values parts separate entries of the source, which are not always exact repeats. Equal entries are not always repeated. Where two headings read alike, the source gives them in different places.

Experiments:
VRE = assay: Broth microdilution MIC, Example 7 (NCL812 and analogues); type: cell-based, Enterococcus spp.; conditions: for MIC: Enterococcus, VRE
Method in brief: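 MICs in μg/ml were read as growth inhibition by eye, checked at 600 nm absorbance against drug-free wells, following CLSI broth microdilution. Strains: two MRSA, two VRE; duplicates, repeated once more when results diverged beyond one dilution step.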

[1] = system: Staphylococcus pseudintermedius isolates (MSSP and MRSP); assay: MIC (CLSI), Example 6; type: cell-based; conditions: for MIC: Staphylococcus pseudintermedius
Method: Anti-staphylococcal compounds were then tested against all 23 isolates and minimum inhibitory concentrations (MIC) were determined according to standard protocols. After the MICs were determined, the minimum bactericidal concentrations were performed to determine if these compounds are bacteriostatic or bacteriocidal.

[2] = 23 Staphylococcus pseudintermedius isolates

N=C(N/N=C/c1ccc(Cl)cc1)N/N=C/c1ccc(Cl)cc1 [NCL812, 1,3-bis[(E)-(4-chlorophenyl)methyleneamino]guanidine]
MIC (VRE; VRE 007 [H23c], Phase II, 2nd, read-out: MIC): 2 µg/mL (≈ 5.98 µM) | MIC (VRE; VRE 008 [H16c(dc)], Phase I, 1st, read-out: MIC): 4 µg/mL (≈ 12 µM) | MIC (VRE; VRE 008 [H16c(dc)], Phase I, 2nd, read-out: MIC): 4 µg/mL (≈ 12 µM) | MIC (VRE; VRE 008 [H16c(dc)], Phase II, 1st, read-out: MIC): 2 µg/mL (≈ 5.98 µM) | MIC (VRE; VRE 008 [H16c(dc)], Phase II, 2nd, read-out: MIC): 2 µg/mL (≈ 5.98 µM) | MIC (VRE; VRE 009 [H25c], Phase I, 1st, read-out: MIC): 4 µg/mL (≈ 12 µM) | MIC (VRE; VRE 009 [H25c], Phase I, 2nd, read-out: MIC): 4 µg/mL (≈ 12 µM) | MIC (VRE; VRE 009 [H25c], Phase II, 1st, read-out: MIC): 2 µg/mL (≈ 5.98 µM) | MIC (VRE; VRE 009 [H25c], Phase II, 2nd, read-out: MIC): 2 µg/mL (≈ 5.98 µM) | MIC (VRE; VRE 010 [H26c(w)], Phase I, 1st, read-out: MIC): 4 µg/mL (≈ 12 µM) | MIC (VRE; VRE 010 [H26c(w)], Phase I, 2nd, read-out: MIC): 4 µg/mL (≈ 12 µM) | MIC (VRE; VRE 010 [H26c(w)], Phase II, 1st, read-out: MIC): 2 µg/mL (≈ 5.98 µM) | MIC (VRE; VRE 010 [H26c(w)], Phase II, 2nd, read-out: MIC): 2 µg/mL (≈ 5.98 µM) | MIC (VRE; VRE 011 [H26c(dc)], Phase I, 1st, read-out: MIC): 2 µg/mL (≈ 5.98 µM) | MIC (VRE; VRE 011 [H26c(dc)], Phase I, 2nd, read-out: MIC): 4 µg/mL (≈ 12 µM) | MIC (VRE; VRE 011 [H26c(dc)], Phase II, 1st, read-out: MIC): 2 µg/mL (≈ 5.98 µM) | MIC (VRE; VRE 011 [H26c(dc)], Phase II, 2nd, read-out: MIC): 2 µg/mL (≈ 5.98 µM) | MIC (VRE; VRE 012 [H35t], Phase I, 1st, read-out: MIC): 2 µg/mL (≈ 5.98 µM) | MIC (VRE; VRE 012 [H35t], Phase I, 2nd, read-out: MIC): 2 µg/mL (≈ 5.98 µM) | MIC (VRE; VRE 012 [H35t], Phase II, 1st, read-out: MIC): 2 µg/mL (≈ 5.98 µM) | MIC (VRE; VRE 012 [H35t], Phase II, 2nd, read-out: MIC): 2 µg/mL (≈ 5.98 µM) | MIC (VRE; VRE 013 [H37c(w)], Phase I, 1st, read-out: MIC): 2 µg/mL (≈ 5.98 µM) | MIC (VRE; VRE 013 [H37c(w)], Phase I, 2nd, read-out: MIC): 2 µg/mL (≈ 5.98 µM) | MIC (VRE; VRE 013 [H37c(w)], Phase II, 1st, read-out: MIC): 2 µg/mL (≈ 5.98 µM) | MIC (VRE; VRE 013 [H37c(w)], Phase II, 2nd, read-out: MIC): 2 µg/mL (≈ 5.98 µM) | MIC (VRE; VRE 014 [H37c(g)], Phase I, 1st, read-out: MIC): 4 µg/mL (≈ 12 µM) | MIC (VRE; VRE 014 [H37c(g)], Phase I, 2nd, read-out: MIC): 4 µg/mL (≈ 12 µM) | MIC (VRE; VRE 014 [H37c(g)], Phase II, 1st, read-out: MIC): 2 µg/mL (≈ 5.98 µM) | MIC (VRE; VRE 014 [H37c(g)], Phase II, 2nd, read-out: MIC): 2 µg/mL (≈ 5.98 µM) | MIC (VRE; bioassay ranking, read-out: VRE): 1.75 µg/mL (≈ 5.24 µM) | MIC (μg/ml) at 24 hours, VRE 1 (VRE; isolate VRE 1, 24 hours, 1st and 2nd replicate rows): 2 µg/mL (≈ 5.98 µM) | MIC (μg/ml) at 24 hours, VRE 2 (VRE; isolate VRE 2, 24 hours, 1st and 2nd replicate rows): 2 µg/mL and 1 µg/mL | MIC50 [1, 2]: 2 µg/mL (≈ 5.98 µM) | MIC range [1, 2]: 1 to 4 µg/mL | MIC range ([1]; Staphylococcus pseudintermedius isolates): 1 to 4 µg/mL | MIC ([1]; 23 Staphylococcus pseudintermedius isolates, read-out: MIC mode): 2 µg/mL (≈ 5.98 µM) | MIC ([1]; Staphylococcus pseudintermedius isolates, read-out: MIC mode): 2 µg/mL (≈ 5.98 µM) | MIC ([1]; isolate S2P2, read-out: MIC): 2 µg/mL (≈ 5.98 µM) | MIC ([1]; isolate S3P3, read-out: MIC): 2 µg/mL (≈ 5.98 µM) | MIC ([1]; isolate S4P4, read-out: MIC): 1 µg/mL (≈ 2.99 µM) | MIC ([1]; isolate S5P5, read-out: MIC): 2 µg/mL (≈ 5.98 µM) | MIC ([1]; isolate S6P6, read-out: MIC): 2 µg/mL (≈ 5.98 µM) | MIC ([1]; isolate S7P7, read-out: MIC): 2 µg/mL (≈ 5.98 µM) | MIC ([1]; isolate S8P8, read-out: MIC): 2 µg/mL (≈ 5.98 µM) | MIC ([1]; isolate S9P9, read-out: MIC): 2 µg/mL (≈ 5.98 µM) | MIC ([1]; isolate S10P10, read-out: MIC): 2 µg/mL (≈ 5.98 µM) | MIC ([1]; isolate S12P12, read-out: MIC): 2 µg/mL (≈ 5.98 µM) | MIC ([1]; isolate S13P13, read-out: MIC): 2 µg/mL (≈ 5.98 µM) | MIC ([1]; isolate S14P14, read-out: MIC): 2 µg/mL (≈ 5.98 µM) | MIC ([1]; isolate S16P16, read-out: MIC): 2 µg/mL (≈ 5.98 µM) | MIC ([1]; isolate S17P17, read-out: MIC): 2 µg/mL (≈ 5.98 µM) | MIC ([1]; isolate S21P21, read-out: MIC): 2 µg/mL (≈ 5.98 µM) | MIC ([1]; isolate S23P23, read-out: MIC): 2 µg/mL (≈ 5.98 µM)
